Data as given in US20040253251A1 (priority 2003, published 2004).
Read-outs that look alike come from different tables or passages of the source.

What was measured:
[1] = system: ovarian tumor cells injected subcutaneously; details: 31st day from tumor inoculation; 30 consecutive days; AY/NY 0.3 ml oral once per day, CTX 30 mg/kg/day s.c.
Procedure: (§1) The biological composition comprising 10^8 cells per ml of activated and conditioned yeast cells of the strain Saccharomyces cerevisiae Hansen strain AS2.502 was prepared by the methods described in Section 5.1 and subsections therein
The mice injected with tumor cells were kept for 5 days and then were divided into 4 experimental groups of ten mice per group and one control group. The four experimental groups were triplicated (i.e., using a total of 120 mice in the experimental groups).
The mice received the biological compositions, untreated yeast cells, CTX or saline on the same day as the tumor cells were transplanted. The mice in group CK2 also started receiving saline on the same day as the other four groups. The biological compositions, untreated yeast cells and saline were administered orally by a feeding tube and the CTX by subcutaneous injection for 30 consecutive days. […] The weight of the mice and the weight of the tumor were determined by standard techniques.

[2] = system: ovarian tumor cells injected subcutaneously; details: for Number of live animals remaining in the groups after 30 days of treatment: 30 mice per group
Procedure: The survival time of mice after tumor injection and treatment was studied.
as §1
The animals were prepared in a similar manner as described in Section 8.1.
The mice injected with tumor cells were kept for 5 days and then were divided into 4 experimental groups of ten mice per group and one control group. The four experimental groups were triplicated (i.e., using a total of 120 mice in the experimental groups). In group 2AY, the mice received 0.3 ml of the biological composition once per day. In group 2NY, the mice received 0.3 ml of the untreated yeast cells once per day. In group 2CTX, the mice were injected subcutaneously with […] of cyclophosphamide (CTX) per kg body weight per day. In group 2CK1, the mice received 0.3 ml of physiological saline once per day.
The mice received the biological compositions, untreated yeast cells, CTX or saline on the same day as the tumor cells were transplanted. Mice in group 2CK2 also started receiving saline on the same day as the other four groups. The biological compositions, untreated yeast cells and saline were administered orally by a feeding tube and the CTX by subcutaneous injection for 30 consecutive days. The mice were observed over 6 months from the day of tumor inoculation and survival was recorded. The weight of the mice and the weight of the tumor were determined by standard techniques.

[3] = system: human ovarian cancer cells transplanted into mice; assay: Tumor growth in mouse model of human ovarian cancer (orthotopic transplant), Example 6; format: in vivo; details: 31st day from tumor inoculation; 30 consecutive days; AY/NY 0.3 ml oral once per day, TSPA 1.5 mg/kg/day i.v.
Excerpt: Numerous animal studies have reported the use of orthotopic transplant technique in female mouse models to study the treating of ovarian cancer. See, for example, Animals for Experiments and Experimental Techniques, Chinese Medical Publisher, 1997. The use of orthotopic transplant technique has been highly successful in the development of mouse models of human ovarian cancer.
The human ovarian cancer sample is carefully selected before, during, and after surgery in order to ensure transplant occurred at the equivalent position in the mouse. The ovarian cancer sample is obtained from patients who have not received any radiation, chemotherapy, or immune enhancement treatment.
The mouse were starved for 24 hours before the surgery. The animals were generally anaesthetized. The barbiturates was first diluted in saline and then injected at 0.3 to 0.4 ml per animal, or 30 mg per kg body weight, into the abdomen of the mice. Under sterile conditions, a 1 cm long opening in the body cavity was cut along the right rib of the mice for engraftment of the tumor. About 10^6 units of tumor cells (about 2 mg tumor pieces per ml culture medium) were transplanted. Afterwards, the opening was sutured and the mice were put back into the cage. The animals were allowed to grow for three to five weeks or when the tumor grows to about 1 to 2 cm^3 in size. […]

[4] = system: human ovarian cancer cells transplanted into mice; assay: Survival over 6 months in mouse model of human ovarian cancer, Example 7; format: in vivo; details: for Number of live animals remaining in the groups after 30 days of treatment: 30 mice per group
Procedure: In group 2TSPA, the mice were injected intravenously with 1.5 mg of thiotepa (TSPA) per kg body weight per day.

[5] = 2 months after cessation of treatment
[6] = 3 months after cessation of treatment
[7] = 4 months after cessation of treatment
[8] = 5 months after cessation of treatment
[9] = 6 months after cessation of treatment
[10] = mice that survived the 6 months observation

O=P1(N(CCCl)CCCl)NCCCO1 (centres unmarked) [CTX, cyclophosphamide]
mean weight of mice and standard deviation [1]: 20 ± 2.3 g
mean weight of tumor nodules and standard deviation [1]: 3.3 ± 1.4 g
Number of live animals remaining in the groups after 30 days of treatment ([2]; 1 month after cessation of treatment, 2AY/2NY 0.3 ml oral per day, 2CTX 305 mg/kg/day s.c. (30 mg)): 30
Number of live animals remaining in the groups after 30 days of treatment [2, 5]: 30
Number of live animals remaining in the groups after 30 days of treatment [2, 6]: 23
Number of live animals remaining in the groups after 30 days of treatment [2, 7]: 14
Number of live animals remaining in the groups after 30 days of treatment [2, 8]: 9
Number of live animals remaining in the groups after 30 days of treatment [2, 9]: 0
survival outcome during the experiment ([2]; in words, 6 months observation, 2NY 0.3 ml per day, 2CTX 30 mg/kg per day): all died
mean weight of mice and standard deviation [2, 10]: all animals dead
mean weight of tumor nodules and standard deviation [2, 10]: all animals dead

S=P(N1CC1)(N1CC1)N1CC1 [TSPA, thiotepa]
mean weight of mice and standard deviation [3]: 21 ± 2.1 g
mean weight of tumor nodules and standard deviation [3]: 3.1 ± 0.8 mg
Number of live animals remaining in the groups after 30 days of treatment ([4]; 0 month after cessation of treatment, 2AY/2NY 0.3 ml oral per day, 2TSPA 1.5 mg/kg/day i.v.): 30
Number of live animals remaining in the groups after 30 days of treatment ([4]; 1 month after cessation of treatment): 24
Number of live animals remaining in the groups after 30 days of treatment [4, 5]: 7
Number of live animals remaining in the groups after 30 days of treatment [4, 6]: 2
Number of live animals remaining in the groups after 30 days of treatment [4, 7]: 0
Number of live animals remaining in the groups after 30 days of treatment [4, 8]: 0
Number of live animals remaining in the groups after 30 days of treatment [4, 9]: 0
survival outcome during the experiment ([4]; in words, 6 months observation, 2NY 0.3 ml per day, 2TSPA 1.5 of thiotepa per kg per day): all died
mean weight of mice and standard deviation [4, 10]: all animals dead
mean weight of tumor nodules and standard deviation [4, 10]: all animals dead
